System: brains, heart, liver, muscle, and DRG of the NHPs
Experiment: Maturation of TTM-001 and TTM-002 capsids, NGS enrichment in NHP tissues
Type: in vivo
Text: This Example describes maturation of the AAV9 capsid variants, TTM-001 (SEQ ID NO: 981 (amino acid) and 983 (DNA), comprising SEQ ID NO: 941 (encoded by SEQ ID NO: 942)) and TTM-002 (SEQ ID NO: 982 (amino acid) and 984 (DNA), comprising SEQ ID NO: […] (encoded by SEQ ID NO: 944)) in NHPs to further enhance their transduction and biodistribution in the central nervous system as well as other tissues, and evolve the AAV capsid variants to provide further cross-species compatibility. Two approaches were used to mature the TTM-001 and TTM-002 capsid sequences in order to randomize and mutate within and around the peptide insert comprised within loop IV of the capsid variant. […] In the first maturation approach, sets of three contiguous amino acids were randomized across the mutagenesis region in the TTM-001 and TTM-002 sequences, which spanned from position 450 to position 466, numbered according to SEQ ID NO: 981 and 982. In the second maturation approach, mutagenic primers were used to introduce point mutations at a low frequency, scattered across the mutagenesis region in the TTM-001 and TTM-002 sequences ranging from position 449 to position 466, numbered according to SEQ ID NO: 981 and 982. AAV capsid variants arising from each maturation approach for TTM-001 and TTM-002 were pooled together, for subsequent testing and characterization in NHPs.
The library of pooled matured AAV capsid variants generated using the first maturation approach and the second maturation approach for the TTM-001 and TTM-002 AAV capsid variants were injected into two NHPs. […] Following RNA recovery and RT-PCR amplification, a systematic NGS enrichment analysis was performed to calculate the fold enrichment ratio relative to an AAV9 control, and the peptides comprised within the variants were identified.
Following the RNA recovery and NGS analysis from the second maturation approach, approximately 680,000 capsid variants were identified. The 680,000 matured capsid variants were then filtered based on samples with a raw virus count greater than 10 and a coefficient of variance (CV) of less than 1, which was calculated for each peptide across the brain samples taken from the two NHPs. […] Using this filtering criteria, this led to approximately 64,000 matured capsid variants.

[1] = NHP DRG, NGS, relative to AAV9 control
[2] = NHP brain, NGS, relative to AAV9 control
[3] = NHP heart, NGS, relative to AAV9 control
[4] = NHP liver DNA, NGS, relative to AAV9 control
[5] = NHP liver RNA, NGS, TTM-001 and TTM-002 matured AAV capsid variants, relative to AAV9 control
[6] = NHP muscle, NGS, relative to AAV9 control
[7] = NGS fold-enrichment, DRG, NHP, relative to AAV9
[8] = NGS fold-enrichment, brain, NHP, relative to AAV9
[9] = NGS fold-enrichment, heart, NHP, relative to AAV9
[10] = NGS fold-enrichment, liver DNA, NHP, relative to AAV9
[11] = NGS fold-enrichment, liver RNA, NHP, relative to AAV9
[12] = NGS fold-enrichment, muscle, NHP, relative to AAV9

Sequence | Fold Enrichment relative to AAV9, DRG (NHP) [1] [fold] | Fold Enrichment relative to AAV9, Brain (NHP) [2] [fold] | Fold Enrichment relative to AAV9, Heart (NHP) [3] [fold] | Fold Enrichment relative to AAV9, Liver DNA (NHP) [4] [fold] | Fold Enrichment relative to AAV9, Liver RNA (NHP) [5] [fold] | Fold Enrichment relative to AAV9, Muscle (NHP) [6] [fold] | Fold Enrichment relative to AAV9, DRG (NHP) [7] [fold] | Fold Enrichment relative to AAV9, Brain (NHP) [8] [fold] | Fold Enrichment relative to AAV9, Heart (NHP) [9] [fold] | Fold Enrichment relative to AAV9, Liver DNA (NHP) [10] [fold] | Fold Enrichment relative to AAV9, Liver RNA (NHP) [11] [fold] | Fold Enrichment relative to AAV9, Muscle (NHP) [12] [fold]
KTINGSGSPHSKALRCQT | 0.000 | 0.000 | 0.000 | 1.892 | 17.283 | 0.000 | – | – | – | – | – | –
KTINGSGSPHSKALRHQT | – | – | – | – | – | – | 0.000 | 0.000 | 0.000 | 4.532 | 10.774 | 0.000
KTINGSGSPHSKALRWQT | 0.000 | 0.000 | 0.000 | 5.252 | 14.118 | 0.000 | – | – | – | – | – | –
KTINGSGSPHSKAPRRQT | 0.000 | 0.000 | 0.000 | 3.940 | 21.645 | 0.000 | – | – | – | – | – | –
KTINGSGSPHSKAQARKT | 0.000 | 0.000 | 0.000 | 3.644 | 96.557 | 0.000 | – | – | – | – | – | –
KTINGSGSPHSKAQCLKT | 0.000 | 0.000 | 0.000 | 1.453 | 49.565 | 0.000 | – | – | – | – | – | –
KTINGSGSPHSKAQFCLT | – | – | – | – | – | – | 0.000 | 0.000 | 0.000 | 3.371 | 10.065 | 0.000
KTINGSGSPHSKAQFILT | 0.000 | 0.000 | 0.000 | 4.208 | 16.650 | 0.000 | – | – | – | – | – | –
KTINGSGSPHSKAQKCIT | 0.000 | 0.000 | 0.000 | 1.887 | 69.547 | 0.000 | – | – | – | – | – | –
KTINGSGSPHSKAQMQIT | 0.000 | 0.000 | 0.000 | 0.371 | 13.990 | 0.000 | – | – | – | – | – | –
KTINGSGSPHSKAQNFKR | 0.000 | 0.000 | 0.000 | 0.964 | 32.291 | 0.000 | – | – | – | – | – | –
KTINGSGSPHSKAQRFKT | 0.000 | 0.000 | 0.000 | 0.139 | 30.363 | 0.000 | – | – | – | – | – | –
KTINGSGSPHSKAQSAKT | 0.000 | 0.000 | 0.000 | 4.200 | 11.162 | 0.000 | – | – | – | – | – | –
KTINGSGSPHSKAQSRKT | 0.000 | 0.000 | 0.000 | 2.715 | 14.589 | 0.000 | – | – | – | – | – | –
KTINGSGSPHSKAQTCRT | 0.000 | 0.000 | 0.000 | 6.369 | 26.472 | 0.000 | – | – | – | – | – | –
KTINGSGSPHSKAQTHRT | 0.000 | 0.000 | 0.000 | 2.917 | 17.290 | 0.000 | – | – | – | – | – | –
KTINGSGSPHSKAQYSRT | 0.000 | 0.000 | 0.000 | 0.956 | 60.119 | 0.000 | – | – | – | – | – | –
KTINGSGSPHSKAQYVRT | 0.000 | 0.000 | 0.000 | 3.275 | 12.239 | 0.000 | – | – | – | – | – | –
KTINGSGSPHSKARISQT | 0.000 | 0.000 | 0.000 | 1.565 | 12.142 | 0.000 | – | – | – | – | – | –
KTINGSGSPHSKARMYQT | 0.000 | 0.000 | 0.000 | 0.313 | 23.424 | 0.000 | – | – | – | – | – | –
KTINGSGSPHSKARQRQT | 0.000 | 0.000 | 0.000 | 2.205 | 56.775 | 0.000 | – | – | – | – | – | –
KTINGSGSPHSKARWQQT | 0.000 | 0.000 | 0.000 | 2.377 | 45.017 | 0.000 | – | – | – | – | – | –
KTINGSGSPHSKCFLQQT | 0.000 | 0.000 | 0.000 | 1.434 | 22.987 | 0.000 | – | – | – | – | – | –
KTINGSGSPHSKCSVQQT | 0.000 | 0.000 | 0.000 | 1.465 | 12.246 | 0.000 | – | – | – | – | – | –
KTINGSGSPHSKCTSQQT | – | – | – | – | – | – | 0.232 | 0.493 | 1.413 | 5.821 | 10.311 | 2.353
